# Experiments:
# [1] = Stability study: half-life in neutral aqueous solutions; format: physicochemical; conditions: xylyl substituted derivatives
# Source text: The introduction of the meta-xylyl ring on the silicon-rosindolizine bridge as found to impart substantial stability compared to a tolyl ring on the silicon-rosindolizine bride. […] This increased stability is critically important to some biological imaging applications. The meta-xylyl substituted derivative retain very similar spectral properties to the tolyl derivatives with absorption and emission observed in the SWIR region. […] Application in night vision, solar cells, and photodetectors are also possible with materials absorbing in this spectral region. […] The quantum yield is near 0.01-0.05% in these environments with peak emission of SiRos1 at ˜1350 nm (FIG. 13) and peak emission of SiRos2>1550 nm.
# [2] = Emission studies (SWIR emission spectra, 980 nm excitation); format: physicochemical; conditions: organic solvent (dichloromethane) / water when encapsulated in a polymer; SiRos1 in DCM (FIG. 13)
# Procedure: 0.1 mg of silicone-based compound was combined with 10 mg DSPE-mPEG2000 (1% loading of dye by mass) in 3 mL of dichloromethane (DCM) in a 10 mL scintillation vial. The solution was vortexed for 10 seconds to homogenously mix the components. DCM was evaporated from the solution on a rotary evaporator at 50° C. until the solution forms a thin paste around the vial. Subsequently, the vial was placed on high vacuum for a half an hour to remove any residual DCM. Next, 3 mL of D2O was added and the resulting mixture was sonicated for one minute with gentle swirling to dissolve the polymer and dye together. The mixture was syringe filtered (0.45 μm) to remove any unencapsulated compound.
# The emission spectra of the dyes were recorded from 1000-2500 nm using a liquid nitrogen cooled InAs fluorimeter from Horiba. A 980 nm DPSS (diode pumped solid state laser, max power 2 W) laser was used as the excitation source and the chopper signal was split from the chopper control to the lock-in-amplifier as a reference signal and the trigger signal to the laser controller. All studies were performed at 1e-5 M in DCM or 0.1 mg of dye per 3 mL D2O solution (for D2O, the dyes were solubilized in a commercially available DSPE-mPEG2000 nanoparticle, preparation previously supplied).
Structure (SMILES),half-life [1],peak emission [2] [nm]
"CCCCC(CC)C[Si]1(CC(CC)CCCC)c2cc(-c3c(-c4ccccc4)c(C)c4ccccn34)ccc2C(c2c(C)cccc2C)=c2cc/c(=C3\C(c4ccccc4)=C(C)c4cccc[n+]43)cc21.[O-][Cl+3]([O-])([O-])[O-] (centres unmarked) [SiRos1, (Z)-3-(10-(2,6-dimethylphenyl)-5,5-bis(2-ethylhexyl)-7-(1-methyl-2-phenylindolizin-3-yl)dibenzo[b,e]silin-3(5H)-ylidene)-1-methyl-2-phenyl-3H-indolizin-4-ium perchlorate]",longer than a week,~1350
"CCCCC(CC)C[Si]1(CC(CC)CCCC)c2cc(-c3c(-c4ccccc4)c(-c4ccc(N(C)C)cc4)c4cc(-c5ccc(N(C)C)cc5)ccn34)ccc2C(c2c(C)cccc2C)=c2cc/c(=C3\C(c4ccccc4)=C(c4ccc(N(C)C)cc4)c4cc(-c5ccc(N(C)C)cc5)cc[n+]43)cc21.[O-][Cl+3]([O-])([O-])[O-] (centres unmarked) [SiRos3, (Z)-3-(7-(1,7-bis(4-(dimethylamino)phenyl)-2-phenylindolizin-3-yl)-10-(2,6-dimethylphenyl)-5,5-bis(2-ethylhexyl)dibenzo[b,e]silin-3(5H)-ylidene)-1,7-bis(4-(dimethylamino)phenyl)-2-phenyl-3H-indolizin-4-ium perchlorate]",longer than a week,
"CCCCC(CC)CC1=C(c2ccccc2)/C(=c2\ccc3c(c2)[Si](CC(CC)CCCC)(CC(CC)CCCC)c2cc(-c4c(-c5ccccc5)c(CC(CC)CCCC)c5cc(-c6ccc(N(C)C)cc6)ccn45)ccc2C=3c2c(C)cccc2C)[n+]2ccc(-c3ccc(N(C)C)cc3)cc21.[O-][Cl+3]([O-])([O-])[O-] (centres unmarked) [SiRos2, (Z)-7-(4-(dimethylamino)phenyl)-3-(7-(7-(4-(dimethylamino)phenyl)-1-(2-ethylhexyl)-2-phenylindolizin-3-yl)-10-(2,6-dimethylphenyl)-5,5-bis(2-ethylhexyl)dibenzo[b,e]silin-3(5H)-ylidene)-1-(2-ethylhexyl)-2-phenyl-3H-indolizin-4-ium perchlorate]",longer than a week,> 1550
